Common to all, as to type: cell-based
In one assay the test system is BHK-21 cells. Briefly: Anti-fibrosis activity test: inhibition of BHK-21 cell proliferation (CCK-8). The note with it: Mesocricetus auratus, BHK-21, 48 h, CCK-8, 48 hours after administration. The essentials:
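Read-out: CCK-8 absorbance at 450 nm after 2 h, giving proliferation inhibition (1−Ai/Ao)×100% versus blank control, from which IC50 was derived. Cells had been treated with compounds for 48 h after 24 h adherence at 37° C. Pirfenidone served as positive control.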

Assay [1] relates to human lung fibroblasts HFL1. Briefly: Anti-fibrosis activity test: inhibition of proliferation of human lung fibroblasts HFL1 (CCK-8). The note with it: Homo sapiens, HFL1, 48 h, human lung fibroblasts HFL1, CCK-8, 48 hours. The essentials:
(§1)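 Exponentially growing cells, 2×10^4 cells/mL, attached 24 h. Dosed 48 h across concentrations (n=3). CCK-8 2 h → A450; IR vs blank; IC50.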

Assay [2] has as its system human hepatic stellate cells LX-2. The assay is described as follows: Anti-fibrosis activity test: inhibition of proliferation of human hepatic stellate cells LX-2 (CCK-8). The note with it: Homo sapiens, 48 h, human hepatic stellate cells LX-2, CCK-8, 48 hours. The method in brief: as §1
Assay [3] concerns human fibrosarcoma cells HT-1080. Briefly: Anti-fibrosis activity test: inhibition of proliferation of human fibrosarcoma cells HT-1080 (CCK-8). The note with it: Homo sapiens, HT-1080, 48 h, human fibrosarcoma cells HT-1080, CCK-8, 48 hours. The essentials:
as §1

Assay [4] concerns human dermal fibroblasts CCC-ESF-1. Briefly: Anti-fibrosis activity test: inhibition of proliferation of human dermal fibroblasts CCC-ESF-1 (CCK-8). The note with it: Fibroblast; human dermal fibroblasts CCC-ESF-1, CCK-8, 48 hours. The essentials: as §1
The subject of assay [5] is human embryonic lung fibroblast IMR-90. Briefly: Anti-fibrosis activity test: inhibition of proliferation of human embryonic lung fibroblast IMR-90 (CCK-8). The note with it: human embryonic lung fibroblast IMR-90, CCK-8, 48 hours. The essentials:
as §1

The test system of assay [6] is cardiac fibroblast RAT-iCell-C002. The assay is described as follows: Anti-fibrosis activity test: inhibition of proliferation of cardiac fibroblast RAT-iCell-C002 (CCK-8). The note with it: Cardiac fibroblast, 48 h, cardiac fibroblast RAT-iCell-C002, CCK-8, 48 hours. The method in brief:
as §1

The subject of a further assay is NF-κB. The assay is described as follows: Immunological activity test: inhibition of NF-κB activity. The note with it: initial concentration of 30 μM; a/b isomers given as first/second symbol; read-out: IC50 (μM), inhibitory activity against NF-κB. The essentials:
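NF-κB inhibition was tested at an initial 30 μM compound concentration, with parthenolide as positive control, and IC50 values were determined from follow-up analysis.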

For assay [7], the system named is mouse macrophages (RAW264.7). The assay is described as follows: Lipopolysaccharide-induced NO secretion in macrophages (Griess). The note with it: Mus musculus, RAW264.7, 24 h, RAW264.7, LPS 1 μg/ml, a/b isomers given as first/second symbol, read-out: IC50 (μM), inhibition of lipopolysaccharide-induced NO secretion in macrophages. The method in brief:
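RAW264.7 cells in DMEM with 10% FBS were treated with test compounds at several concentrations, then stimulated with LPS (1 μg/ml) for 24 hours. Nitrite in the supernatant was measured by Griess reaction at 548 nm, and percent inhibition was calculated against blank-medium controls.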
For orientation: The Griess reaction detects nitrite, a stable product of nitric oxide.

Regarding `O=C1c2c(n(Cc3cc(C(F)(F)F)ccc3Cl)c3ccccc3c2=O)-c2cccn21` [Compound 611a, 4-(2-Chloro-5-(trifluoromethyl)benzyl)-9H-pyrrolizino[1,2-b]quinoline-9,10(4H)-dione], the IC50 (in the assay with BHK-21 cells; in assay [1]; in assay [2]; in assay [3]; in assay [4]; in assay [5]) was 0.05 to 5 mM throughout. Besides, the IC50 (commonly the concentration at which inhibition is half-maximal) in assay [6] lay in the range of 0.05 to 5 mM; in the assay on NF-κB, 0.1 to 1 µM; in [7] it was 10 to 50 µM.

Take `O=C1c2c(nc3ccccc3c2OCc2cc(C(F)(F)F)ccc2Cl)-c2cccn21` [Compound 611b, 9-((2-chloro-5-(trifluoromethyl)benzyl)oxy)-10H-pyrrolizino[1,2-b]quinolin-10-one]: the IC50 (in the assay on BHK-21 cells; in [1]; in [2]; in assay [3]; in assay [4]; in assay [5]) was 0.05 to 5 mM throughout. Further, the concentration for half-maximal inhibition (IC50) in assay [6] was 0.05 to 5 mM; in the assay on NF-κB, 1 to 10 µM; in [7], 10 to 50 µM.

`O=C1c2c(n(Cc3ccccc3Br)c3ccccc3c2=O)-c2cccn21` [Compound 612a, 4-(2-Bromobenzyl)-9H-pyrrolizino[1,2-b]quinoline-9,10(4H)-dione]: the IC50 (with BHK-21 cells; in assay [1]; in [2]; in assay [3]; in assay [4]; in assay [5]) was 0.05 to 5 mM in each case. The IC50 was 0.05 to 5 mM in assay [6], 1 to 10 µM in the assay on NF-κB and 10 to 50 µM in assay [7].

Regarding `O=C1c2c(nc3ccccc3c2OCc2ccccc2Br)-c2cccn21` [Compound 612b, 9-((2-bromobenzyl)oxy)-10H-pyrrolizino[1,2-b]quinolin-10-one], the IC50 (in the assay on BHK-21 cells; in assay [1]; in assay [2]; in assay [3]; in assay [4]; in assay [5]) was 0.05 to 5 mM each time. The IC50 in assay [6] was 0.05 to 5 mM; in the assay with NF-κB, 1 to 10 µM; in assay [7], 10 to 50 µM.

Turning to `O=C1c2c(n(Cc3ccc(Cl)c(Cl)c3)c3ccccc3c2=O)-c2cccn21` [Compound 613a, 4-(3,4-Dichlorobenzyl)-9H-pyrrolizino[1,2-b]quinoline-9,10(4H)-dione], the IC50 was below 0.05 mM with BHK-21 cells; 0.05 to 5 mM in [1]; 0.05 to 5 mM in [2]; 0.05 to 5 mM in assay [3]; 0.05 to 5 mM in [4]; 0.05 to 5 mM in [5]. Besides, the values for the IC50 (in [6]; in the assay on NF-κB; in assay [7]) were 0.05 to 5 mM, 1 to 10 µM and 10 to 50 µM, respectively.

For `O=C1c2c(nc3ccccc3c2OCc2ccc(Cl)c(Cl)c2)-c2cccn21` [Compound 613b, 9-((3,4-dichlorobenzyl)oxy)-10H-pyrrolizino[1,2-b]quinolin-10-one], the IC50 (in the assay with BHK-21 cells; in [1]; in [2]; in assay [3]; in [4]; in assay [5]) was 0.05 to 5 mM each time. The results for the IC50 (in assay [6]; with NF-κB; in assay [7]) were 0.05 to 5 mM, 1 to 10 µM and 10 to 50 µM, respectively.

In the case of `O=C1c2c(n(Cc3c(Cl)cccc3Cl)c3ccccc3c2=O)-c2cccn21` [Compound 614a, 4-(2,6-Dichlorobenzyl)-9H-pyrrolizino[1,2-b]quinoline-9,10(4H)-dione], the half-inhibitory concentration (IC50) with BHK-21 cells was 0.05 to 5 mM; in assay [1], 0.05 to 5 mM; in assay [2] it was 0.05 to 5 mM; in [3] it was below 0.05 mM; in assay [4], 0.05 to 5 mM; in [5] it was 0.05 to 5 mM. The IC50 lay within 0.05 to 5 mM in [6], 1 to 10 µM in the assay on NF-κB and 10 to 50 µM in assay [7].

In the case of `O=C1c2c(nc3ccccc3c2OCc2c(Cl)cccc2Cl)-c2cccn21` [Compound 614b, 9-((2,6-dichlorobenzyl)oxy)-10H-pyrrolizino[1,2-b]quinolin-10-one], the IC50 (in the assay on BHK-21 cells; in assay [1]; in [2]; in [3]; in assay [4]; in assay [5]) was 0.05 to 5 mM in each case. The IC50 in assay [6] was in the range of 0.05 to 5 mM; with NF-κB, 1 to 10 µM; in [7] it was 10 to 50 µM.

Turning to `O=C1c2c(n(Cc3c(F)cccc3F)c3ccccc3c2=O)-c2cccn21` [Compound 615a, 4-(2,6-Difluorobenzyl)-9H-pyrrolizino[1,2-b]quinoline-9,10(4H)-dione], the IC50 (with BHK-21 cells; in assay [1]; in [2]; in [3]; in [4]; in [5]) was 0.05 to 5 mM throughout. The IC50 in assay [6] was in the range of 0.05 to 5 mM; with NF-κB it was 0.1 to 1 µM; in [7] it was 10 to 50 µM.

Take `O=C1c2c(nc3ccccc3c2OCc2c(F)cccc2F)-c2cccn21` [Compound 615b, 9-((2,6-difluorobenzyl)oxy)-10H-pyrrolizino[1,2-b]quinolin-10-one]: the IC50 (in the assay on BHK-21 cells; in assay [1]; in assay [2]; in assay [3]; in [4]; in assay [5]) was 0.05 to 5 mM throughout. The values for the IC50 (in [6]; in the assay on NF-κB; in [7]) were 0.05 to 5 mM, 10 to 50 µM and 10 to 50 µM, respectively.

Turning to `N#Cc1ccc(F)cc1Cn1c2c(c(=O)c3ccccc31)C(=O)n1cccc1-2` [Compound 616a, 2-((9,10-Dioxo-9H-pyrrolizino[1,2-b]quinolin-4(10H)-yl)methyl)-4-fluorobenzonitrile], the 50% inhibitory concentration (IC50) (in the assay with BHK-21 cells; in assay [1]; in assay [2]; in assay [3]; in [4]; in assay [5]) was 0.05 to 5 mM each time. For the same compound, the IC50 in assay [6] was in the range of 0.05 to 5 mM; with NF-κB it was 0.1 to 1 µM; in assay [7], 10 to 50 µM.

For `N#Cc1ccc(F)cc1COc1c2c(nc3ccccc13)-c1cccn1C2=O` [Compound 616b, 4-fluoro-2-(((10-oxo-10H-pyrrolizino[1,2-b]quinolin-9-yl)oxy)methyl)benzonitrile], the IC50 (with BHK-21 cells; in assay [1]; in [2]; in [3]; in [4]; in assay [5]) was 0.05 to 5 mM throughout. The figures for the IC50 (in [6]; in the assay on NF-κB; in [7]) were 0.05 to 5 mM, 10 to 50 µM and 1 to 10 µM, respectively.

Consider `N#Cc1ccccc1-c1ccc(Cn2c3c(c(=O)c4ccccc42)C(=O)n2cccc2-3)cc1` [Compound 648a, 4′-((9,10-Dioxo-9H-pyrrolizino[1,2-b]quinolin-4(10H)-yl)methyl)-[1,1′-biphenyl]-2-carbonitrile], for which the IC50 (in the assay with BHK-21 cells; in assay [1]; in assay [2]; in [3]; in assay [4]; in assay [5]) was 0.05 to 5 mM in each case. Moreover, the IC50 in [6] fell in the range of 0.05 to 5 mM; in the assay with NF-κB, 1 to 10 µM; in assay [7], 10 to 50 µM.

For the origin of these results see patent US11040028B2, “Penicinotam derivative, preparation method and use thereof” (OCEAN UNIVERSITY OF CHINA, priority 2017, dated 2021).
